This assay has as its target T1, CTP synthase 1 (Homo sapiens, UniProt P17812).
T1 sequence (P17812 whole entry): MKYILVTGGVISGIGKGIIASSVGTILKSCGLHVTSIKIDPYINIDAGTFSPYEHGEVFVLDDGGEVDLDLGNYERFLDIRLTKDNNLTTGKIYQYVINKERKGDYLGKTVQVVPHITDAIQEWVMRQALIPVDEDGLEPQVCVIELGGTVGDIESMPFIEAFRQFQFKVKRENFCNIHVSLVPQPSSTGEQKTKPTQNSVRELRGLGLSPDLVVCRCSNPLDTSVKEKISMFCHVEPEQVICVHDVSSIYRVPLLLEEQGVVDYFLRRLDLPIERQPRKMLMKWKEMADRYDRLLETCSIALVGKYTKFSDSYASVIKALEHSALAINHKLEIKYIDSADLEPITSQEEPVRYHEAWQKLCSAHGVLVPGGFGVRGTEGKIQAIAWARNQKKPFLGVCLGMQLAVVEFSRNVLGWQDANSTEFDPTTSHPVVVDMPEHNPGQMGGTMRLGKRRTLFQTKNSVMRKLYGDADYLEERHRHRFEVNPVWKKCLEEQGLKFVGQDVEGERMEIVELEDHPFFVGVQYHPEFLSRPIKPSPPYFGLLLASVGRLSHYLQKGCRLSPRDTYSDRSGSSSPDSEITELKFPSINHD
Kind of assay: hCTPS1 Biochemical Assay. The method, then:
Purified human CTPS1 protein was prepared in 1× assay buffer to the final working protein concentration required for the reaction. A 2.5 uL volume per well of human CTPS1 protein was mixed with 0.1 uL per well of test compound dissolved in DMSO and pre-incubated at 25 degrees C. for 10 minutes. 2.5 uL per well of the reaction precursors ATP (UltraPure ATP from ADP-Glo™ kit) and UTP were then added and pre-incubated for an additional 10 minutes at 25 degrees C. Finally, the reaction was initiated by the addition of 5 uL of the reaction precursors L-glutamine and GTP. The final concentration of all reaction components in the assay: ATP (120 uM), UTP (160 uM), GTP (60 uM), L-Glutamine (100 uM), DMSO (1%), hCTPS1 (25 nM). This mixture was incubated for an appropriate amount of time within the determined linear phase of the reaction at 25 degrees C. under sealed plate conditions with constant agitation at 500 revolutions per minute (rpm). ADP-Glo™ reagent was added for 60 minutes (10 uL per well) and subsequently ADP-Glo™ development reagent was added for 60 minutes (20 uL per well) prior to signal detection in a microplate reader (Envision Multilabel Reader, Perkin Elmer). Following each reagent addition over the course of the assay, assay plates were pulse centrifuged for 1 minute at 1000 rpm.

By IC50 is commonly meant the concentration at which inhibition is half-maximal. Lower therefore signals greater potency in that assay.

In turn, `CCc1c[nH]c2ncc(-c3ccc(C(=O)NCc4cc(NS(=O)(=O)C5CC5)ccn4)cc3)cc12` [US12331046, Compound I-38] registered an IC50 below 100 nM. Next, `CCOc1cncc(-c2cnc(C(=O)NCc3cccc(NS(=O)(=O)C(F)F)c3)s2)n1` [US12331046, Compound I-61]: below 100 nM; `CCOc1cncc(-c2ccc(C(=O)NC(C#N)c3cc(NS(=O)(=O)C4CC4)ccn3)cc2)n1` (stereo not given) [US12331046, Compound I-64]: below 100 nM. `CCOc1cncc(-c2nnc(C(=O)N[C@H](CC)c3cc(NS(=O)(=O)C4CC4)ccn3)s2)n1` [US12331046, Compound I-240] returned an IC50 below 100 nM.

The molecule `CCOc1cncc(-c2cnc(C(=O)NCc3cc(F)cc(NS(=O)(=O)C4CC4)c3)s2)n1` [US12331046, Compound I-256] yielded an IC50 below 100 nM.
